The record followed here is ChEMBL document CHEMBL1122174, “Behavioral and serotonin receptor properties of 4-substituted derivatives of the hallucinogen 1-(2,5-dimethoxyphenyl)-2-aminopropane” (J Med Chem, 1982).

Active and inactive are the calls of the source. No cut-off for these calls is given here.

The species named for the first experiment is Homo sapiens. The experiment is described as follows: Hallucinogenic potency was determined in humans. In kind it is functional.
`CCc1cc(OC)c(CC(C)N)cc1OC` (racemic) gave an HHP of 1.5 mg.

Consider `COc1cc(CC(C)N)c(OC)cc1Br` (racemic) [BROLAMFETAMINE], for which the HHP was determined as 0.8 mg.

Consider `COc1cc(C[C@H](C)N)c(OC)cc1Br`, for which the HHP was determined as 4 mg.

Turning to `COc1ccc(OC)c(CC(C)N)c1` (racemic), the HHP worked out at 50 mg.

In the next experiment the test system is Rattus norvegicus. The experiment is described as follows: Dose required to produce 50% hallucinogenic potency in rat was determined at a dose of 3.0 mg/kg. The format is functional.
`COc1ccc(OC)c(CC(C)N)c1` (racemic) returned an ED50 of 5.51 mg/kg.

In another experiment the test system is Rattus norvegicus. As to the kind of experiment: Dose required to produce 50% hallucinogenic potency in rat was determined at a dose of 2 mg/kg; Disruption behavior. Details: dose 2 mg/kg. In kind it is functional, organism-based.
As for `CC(N)Cc1ccccc1` (racemic) [AMPHETAMINE], the DOM result is “inactive”.

For a further experiment, the system named is Rattus norvegicus. As to the kind of experiment: Dose required to produce 50% hallucinogenic potency in rat was determined at a dose of 3 mg/kg. The format is functional.
The molecule `COc1ccccc1CC(C)N` (racemic) returned a DOM of 7%.

In turn, `COc1cc(Br)c(OC)c(CC(C)N)c1` (racemic) yielded a DOM of 0%.

Another experiment relates to Rattus norvegicus. As to the kind of experiment: Dose required to produce 50% hallucinogenic potency in rat was determined at a dose of 3 mg/kg; Disruption behavior. The format is functional, organism-based. Details: dose 3 mg/kg.
Take `CC(N)Cc1ccccc1` (racemic) [AMPHETAMINE]: the DOM entry was “inactive”.

The next experiment relates to Rattus norvegicus. The experiment is described as follows: Dose required to produce 50% hallucinogenic potency in rat was determined at a dose of 4 mg/kg. The format is functional.
On to `COc1cccc(CC(C)N)c1` (racemic), for which the DOM was 10%.

A further experiment relates to Rattus norvegicus. As to the kind of experiment: Dose required to produce 50% hallucinogenic potency in rat was determined at a dose of 4 mg/kg; Disruption behavior. The format is functional, organism-based. Details: dose 4 mg/kg.
Turning to `COc1ccccc1CC(C)N` (racemic), the DOM result is “inactive”.

`COc1ccc(CC(C)N)cc1` (racemic) [PARA-METHOXYAMPHETAMINE]: the DOM result is “inactive”.

In the case of `COc1cccc(CC(C)N)c1` (racemic), the DOM result was “inactive”.

Consider `COc1ccc(C[C@@H](C)N)cc1`, for which the DOM entry is “inactive”.

A further experiment relates to Rattus norvegicus. The experiment is described as follows: Dose required to produce 50% hallucinogenic potency in rat was determined at a dose of 0.125 mg/kg. In kind it is functional.
As for `CCc1cc(OC)c(CC(C)N)cc1OC` (racemic), the DOM was 10%.

`COc1cc(CC(C)N)c(OC)cc1Br` (racemic) [BROLAMFETAMINE] showed a DOM of 18%.

The next experiment has as its system Rattus norvegicus. As to the kind of experiment: Dose required to produce 50% hallucinogenic potency in rat was determined at a dose of 0.2 mg/kg. In kind it is functional.
`COc1cc(CC(C)N)c(OC)cc1Br` (racemic) [BROLAMFETAMINE] had a DOM of 51%.

In a further experiment the test system is Rattus norvegicus. The experiment is described as follows: Dose required to produce 50% hallucinogenic potency in rat was determined at a dose of 0.25 mg/kg. In kind it is functional.
As to `CCc1cc(OC)c(CC(C)N)cc1OC` (racemic), the DOM was found to be 44%.

`COc1cc(CC(C)N)c(OC)cc1Br` (racemic) [BROLAMFETAMINE] returned a DOM of 70%.

The subject of another experiment is Rattus norvegicus. As to the kind of experiment: Dose required to produce 50% hallucinogenic potency in rat was determined at a dose of 0.5 mg/kg. In kind it is functional.
In the case of `CCc1cc(OC)c(CC(C)N)cc1OC` (racemic), the DOM is reported as 99%.

`COc1cc(CC(C)N)c(OC)cc1Br` (racemic) [BROLAMFETAMINE] came in with a DOM of 91%.

On to `COc1cc(C[C@H](C)N)c(OC)cc1Br`, for which the DOM is 20%.

For `COc1ccc(CC(C)N)cc1` (racemic) [PARA-METHOXYAMPHETAMINE], the DOM came to 13%.

For the molecule `COc1ccc(C[C@@H](C)N)cc1`, the DOM was 18%.

For the next experiment, the system named is Rattus norvegicus. As to the kind of experiment: Dose required to produce 50% hallucinogenic potency in rat was determined at a dose of 0.75 mg/kg. The format is functional.
Molecule `COc1cc(C[C@H](C)N)c(OC)cc1Br` registered a DOM of 35%.

The subject of another experiment is Rattus norvegicus. The experiment is described as follows: Dose required to produce 50% hallucinogenic potency in rat was determined at a dose of 1 mg/kg. In kind it is functional.
The molecule `COc1ccc(CC(C)N)cc1` (racemic) [PARA-METHOXYAMPHETAMINE] displayed a DOM of 15%.

Molecule `COc1cc(Br)c(OC)c(CC(C)N)c1` (racemic) showed a DOM of 2%.

The molecule `COc1ccc(C[C@@H](C)N)cc1` came in with a DOM of 20%.

As to `CC(N)Cc1ccccc1` (racemic) [AMPHETAMINE], the DOM is 2%.

Another experiment concerns Rattus norvegicus. The experiment is described as follows: Dose required to produce 50% hallucinogenic potency in rat was determined at a dose of 1.5 mg/kg. In kind it is functional.
Regarding `COc1cc(C[C@H](C)N)c(OC)cc1Br`, the DOM came to 96%.

Regarding `CC(N)Cc1ccccc1` (racemic) [AMPHETAMINE], the DOM came to 26%.

A further experiment concerns Rattus norvegicus. The experiment is described as follows: Dose required to produce 50% hallucinogenic potency in rat was determined at a dose of 2 mg/kg. In kind it is functional.
The molecule `COc1ccccc1CC(C)N` (racemic) returned a DOM of 2%.

Consider `COc1cc(Br)c(OC)c(CC(C)N)c1` (racemic), for which the DOM was 3%.

In turn, `COc1cccc(CC(C)N)c1` (racemic) gave a DOM of 8%.

For the next experiment, the species on record is Rattus norvegicus. The experiment is described as follows: Dose at which the rats perform 50% appropriate drug -lever responding was determined. The format is functional.
In turn, `CCc1cc(OC)c(CC(C)N)cc1OC` (racemic) displayed an ED50 of 0.23 mg/kg.

`COc1cc(CC(C)N)c(OC)cc1Br` (racemic) [BROLAMFETAMINE] displayed an ED50 of 0.2 mg/kg.

As for `COc1cc(C[C@H](C)N)c(OC)cc1Br`, the ED50 turned out to be 0.81 mg/kg.

The next experiment deals with Rattus norvegicus. As to the kind of experiment: Number of rats responding out of 5 treated rats at a dose of 0.125 mg/Kg. The format is functional.
`CCc1cc(OC)c(CC(C)N)cc1OC` (racemic): the No. of animals is listed as 5.

In the case of `COc1cc(CC(C)N)c(OC)cc1Br` (racemic) [BROLAMFETAMINE], the No. of animals amounted to 5.

The subject of a further experiment is Rattus norvegicus. The experiment is described as follows: Number of rats responding out of 5 treated rats at a dose of 0.25 mg/Kg. The format is functional.
Consider `CCc1cc(OC)c(CC(C)N)cc1OC` (racemic), for which the No. of animals is 5.

The molecule `COc1cc(CC(C)N)c(OC)cc1Br` (racemic) [BROLAMFETAMINE] came in with a No. of animals of 5.

The next experiment concerns Rattus norvegicus. As to the kind of experiment: Number of rats responding out of 5 treated rats at a dose of 0.5 mg/Kg. The format is functional.
For `CCc1cc(OC)c(CC(C)N)cc1OC` (racemic), the No. of animals amounted to 5.

On to `COc1cc(CC(C)N)c(OC)cc1Br` (racemic) [BROLAMFETAMINE], for which the No. of animals was found to be 5.

In the case of `COc1cc(C[C@H](C)N)c(OC)cc1Br`, the No. of animals is 5.

`COc1ccc(CC(C)N)cc1` (racemic) [PARA-METHOXYAMPHETAMINE] came in with a No. of animals of 5.

For the molecule `COc1ccc(C[C@@H](C)N)cc1`, the No. of animals stood at 5.

In the next experiment the test system is Rattus norvegicus. As to the kind of experiment: Number of rats responding out of 5 treated rats at a dose of 0.75 mg/Kg. In kind it is functional.
Molecule `COc1cc(C[C@H](C)N)c(OC)cc1Br` had a No. of animals of 5.

The test system of the next experiment is Rattus norvegicus. As to the kind of experiment: Number of rats responding out of 5 treated rats at a dose of 1 mg/Kg. In kind it is functional.
`COc1ccc(CC(C)N)cc1` (racemic) [PARA-METHOXYAMPHETAMINE] had a No. of animals of 4.

`COc1cc(Br)c(OC)c(CC(C)N)c1` (racemic) showed a No. of animals of 5.

`COc1ccc(C[C@@H](C)N)cc1` came in with a No. of animals of 3.

As for `CC(N)Cc1ccccc1` (racemic) [AMPHETAMINE], the No. of animals is listed as 5.

Another experiment deals with Rattus norvegicus. The experiment is described as follows: Number of rats responding out of 5 treated rats at a dose of 1.5 mg/Kg. The format is functional.
As for `COc1cc(C[C@H](C)N)c(OC)cc1Br`, the No. of animals is reported as 5.

Molecule `COc1ccc(CC(C)N)cc1` (racemic) [PARA-METHOXYAMPHETAMINE] came in with a No. of animals of 2.

On to `COc1ccc(C[C@@H](C)N)cc1`, for which the No. of animals is on record as 1.

`CC(N)Cc1ccccc1` (racemic) [AMPHETAMINE] returned a No. of animals of 3.

The next experiment has as its system Rattus norvegicus. The experiment is described as follows: Number of rats responding out of 5 treated rats at a dose of 2 mg/Kg. In kind it is functional.
`COc1ccccc1CC(C)N` (racemic) gave a No. of animals of 5.

`COc1cc(Br)c(OC)c(CC(C)N)c1` (racemic): the No. of animals is given as 5.

In turn, `COc1cccc(CC(C)N)c1` (racemic) showed a No. of animals of 5.

`CC(N)Cc1ccccc1` (racemic) [AMPHETAMINE] came in with a No. of animals of 1.

The subject of a further experiment is Rattus norvegicus. As to the kind of experiment: Number of rats responding out of 5 treated rats at a dose of 3 mg/Kg. In kind it is functional.
On to `COc1ccccc1CC(C)N` (racemic), for which the No. of animals is recorded as 4.

In turn, `COc1cc(Br)c(OC)c(CC(C)N)c1` (racemic) yielded a No. of animals of 4.

`CC(N)Cc1ccccc1` (racemic) [AMPHETAMINE] had a No. of animals of 0.

For another experiment, the system named is Rattus norvegicus. As to the kind of experiment: Number of rats responding out of 5 treated rats at a dose of 4 mg/Kg. In kind it is functional.
`COc1ccccc1CC(C)N` (racemic) returned a No. of animals of 2.

Regarding `COc1cccc(CC(C)N)c1` (racemic), the No. of animals was found to be 3.

A further experiment concerns Rattus norvegicus. As to the kind of experiment: Number of rats responding out of 5 treated rats at a dose of 5 mg/Kg. In kind it is functional.
Take `COc1cccc(CC(C)N)c1` (racemic): the No. of animals amounted to 1.

Another experiment concerns Rattus norvegicus. The experiment is described as follows: Number of rats responding out of 5 treated rats at a dose of 0.20 mg/Kg. The format is functional.
`COc1cc(CC(C)N)c(OC)cc1Br` (racemic) [BROLAMFETAMINE]: the No. of animals amounted to 5.
